How the values were obtained:
U-87 MG [1] = assay: Cytotoxicity against human U87MG cells assessed as reduction in cell viability by WST1 assay
HCT-116 [2] = assay: Cytotoxicity against human HCT116 cells assessed as reduction in cell viability by WST1 assay
U-87 MG [3] = assay: Inhibition of colony formation in human U87MG cells
HCT-116 [4] = assay: Inhibition of colony formation in human HCT116 cells
U-87 MG [5] = conditions: Homo sapiens; U-87MG ATCC

SMILES | IC50 (U-87 MG [1]) [nM] | IC50 (HCT-116 [2]) [nM] | IC50 (U-87 MG [3]) [nM] | IC50 (HCT-116 [4]) [nM] | inhibition (U-87 MG [5])
CNC(=O)c1ccccc1Nc1nc(Nc2ccc(N3CCOCC3)cc2OC)nnc1Cl | 13300 | 190 | 1500 | 1000 | Dose-dependent effect
CNC(=O)c1ccccc1Nc1nc(Nc2ccc(CN)cc2)nnc1Cl | 2400 | 1800 | 14 | 1100 | Dose-dependent effect
CNC(=O)c1ccccc1Nc1nc(Nc2ccc(N3CCOCC3)cc2OC)ncc1Cl | 1300 | 390 | 170 | 270 | –
CNC(=O)c1ccccc1Nc1nc(Nc2cc(C)c(Cl)cc2OC)nnc1Cl | 9200 | 5800 | 500 | 4500 | Dose-dependent effect
COc1cc(Nc2nnc(Cl)c(Nc3cccc(NS(C)(=O)=O)c3)n2)cc(OC)c1OC | 12500 | 14800 | 70 | 60 | Dose-dependent effect
CNC(=O)c1ccccc1Nc1nc(Nc2ccc(N3CCOCC3)cc2)nnc1Cl | 10100 | 500 | 700 | 1700 | Dose-dependent effect
CNC(=O)c1ccccc1Nc1nc(Nc2cc(OC)c(OC)c(OC)c2)nnc1Cl | 17000 | 14900 | 1700 | 2100 | Dose-dependent effect
